The source made the active and inactive calls. The calls are words filed in the database; no cut-off is given here.
How the values were obtained:
[1] = target: T1, Coagulation factor XIII A chain (Homo sapiens, UniProt P00488); test: Inhibition of thrombin-activated F13-A (unknown origin) in plasma assessed as inhibition of fibrin clot formation after 7 mins by biotin incorporation assay
T1 sequence (P00488 whole entry): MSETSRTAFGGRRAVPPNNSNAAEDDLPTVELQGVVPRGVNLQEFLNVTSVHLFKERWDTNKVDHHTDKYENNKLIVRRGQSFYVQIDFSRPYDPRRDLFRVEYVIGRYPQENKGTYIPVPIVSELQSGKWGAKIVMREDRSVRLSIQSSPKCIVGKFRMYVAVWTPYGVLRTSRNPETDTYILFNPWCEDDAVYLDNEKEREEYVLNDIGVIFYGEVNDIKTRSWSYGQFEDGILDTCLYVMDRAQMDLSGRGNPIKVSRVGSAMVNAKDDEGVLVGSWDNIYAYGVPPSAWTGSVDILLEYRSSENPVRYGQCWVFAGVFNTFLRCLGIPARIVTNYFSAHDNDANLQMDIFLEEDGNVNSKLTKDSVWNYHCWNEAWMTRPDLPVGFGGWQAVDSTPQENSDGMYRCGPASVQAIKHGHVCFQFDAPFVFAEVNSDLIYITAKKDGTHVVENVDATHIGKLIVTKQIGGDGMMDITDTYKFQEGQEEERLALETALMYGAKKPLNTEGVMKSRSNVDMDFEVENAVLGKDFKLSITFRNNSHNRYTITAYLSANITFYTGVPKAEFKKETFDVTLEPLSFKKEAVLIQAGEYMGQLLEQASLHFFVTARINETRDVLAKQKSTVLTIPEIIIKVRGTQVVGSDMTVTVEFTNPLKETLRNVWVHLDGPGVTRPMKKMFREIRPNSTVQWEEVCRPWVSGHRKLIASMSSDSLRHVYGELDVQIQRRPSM

[2] = target: Cathepsin S (Homo sapiens) (UniProt P25774); test: Inhibition of cathepsin S (unknown origin) using Z-Val-Val-Arg-AMC as substrate at 100 uM measured every minute for 30 mins by fluorometric plate reader analysis
Sequence of Cathepsin S (Homo sapiens) (P25774 115-331 limits assumed): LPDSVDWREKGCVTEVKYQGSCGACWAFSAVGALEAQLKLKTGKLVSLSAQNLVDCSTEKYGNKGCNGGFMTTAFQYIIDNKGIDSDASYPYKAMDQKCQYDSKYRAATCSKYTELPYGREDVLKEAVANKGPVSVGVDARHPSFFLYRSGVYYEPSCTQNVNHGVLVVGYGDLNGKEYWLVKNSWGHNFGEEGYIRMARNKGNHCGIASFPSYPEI

Homo sapiens = organism: Homo sapiens; test: Selectivity ratio, ratio of concentration required for inhibition of cathepsin S (unknown origin) to IC50 for F13-A (unknown origin)
[3] = target: T2, Protein-glutamine gamma-glutamyltransferase (Homo sapiens, UniProt P21980); test: Inhibition of transglutaminase 2 (unknown origin)
T2 sequence (P21980 whole entry): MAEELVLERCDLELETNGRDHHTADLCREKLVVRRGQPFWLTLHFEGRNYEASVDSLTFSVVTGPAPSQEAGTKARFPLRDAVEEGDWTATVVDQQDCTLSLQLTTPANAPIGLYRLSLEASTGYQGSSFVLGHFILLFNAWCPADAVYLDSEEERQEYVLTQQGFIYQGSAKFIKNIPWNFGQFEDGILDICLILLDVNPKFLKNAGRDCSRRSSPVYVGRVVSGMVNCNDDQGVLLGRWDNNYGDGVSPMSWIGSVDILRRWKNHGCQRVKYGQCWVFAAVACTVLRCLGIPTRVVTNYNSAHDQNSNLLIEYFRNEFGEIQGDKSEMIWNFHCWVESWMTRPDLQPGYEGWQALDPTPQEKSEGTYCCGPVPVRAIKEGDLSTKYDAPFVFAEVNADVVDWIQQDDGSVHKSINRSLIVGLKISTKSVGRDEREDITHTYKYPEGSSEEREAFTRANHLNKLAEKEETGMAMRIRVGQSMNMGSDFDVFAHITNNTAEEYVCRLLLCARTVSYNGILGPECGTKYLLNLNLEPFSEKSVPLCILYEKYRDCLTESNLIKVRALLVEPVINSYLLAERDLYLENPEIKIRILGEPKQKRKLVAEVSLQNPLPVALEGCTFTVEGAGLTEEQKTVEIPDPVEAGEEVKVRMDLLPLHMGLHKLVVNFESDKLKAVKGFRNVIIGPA

[4] = target: T3, Coagulation factor XIII A chain (Homo sapiens) (UniProt P00488); test: Inhibition of F13-A in human plasma assessed as inhibition of fibrin clot formation at 1 X 10^-6 M by biotin incorporation assay; settings: values are per cent of control
T3 sequence (whole entry): T1 sequence (P00488 whole entry)

[5] = target: T3, Coagulation factor XIII A chain (Homo sapiens); test: Inhibition of F13-A in human plasma assessed as inhibition of fibrin clot formation at 2 X 10^-7 M by biotin incorporation assay; settings: values are per cent of control
[6] = target: T3, Coagulation factor XIII A chain (Homo sapiens); test: Inhibition of F13-A in human plasma assessed as inhibition of fibrin clot formation at 7.5 X 10^-8 M by biotin incorporation assay; settings: values are per cent of control
[7] = target: T3, Coagulation factor XIII A chain (Homo sapiens); test: Inhibition of F13-A in human plasma assessed as inhibition of fibrin clot formation at 2 X 10^-8 M by biotin incorporation assay; settings: values are per cent of control
[8] = target: T3, Coagulation factor XIII A chain (Homo sapiens); test: Inhibition of F13-A in human plasma assessed as inhibition of fibrin clot formation at 1 X 10^-6 M by biotin incorporation assay in presence of 10 X 10^-3 mol/l reduced GSH; settings: values are per cent of control
[9] = target: T3, Coagulation factor XIII A chain (Homo sapiens); test: Inhibition of F13-A in human plasma assessed as inhibition of fibrin clot formation at 2 X 10^-7 M by biotin incorporation assay in presence of 10 X 10^-3 mol/l reduced GSH; settings: values are per cent of control
[10] = target: T3, Coagulation factor XIII A chain (Homo sapiens); test: Inhibition of F13-A in human plasma assessed as inhibition of fibrin clot formation at 7.5 X 10^-8 M by biotin incorporation assay in presence of 10 X 10^-3 mol/l reduced GSH; settings: values are per cent of control
[11] = target: T3, Coagulation factor XIII A chain (Homo sapiens); test: Inhibition of F13-A in human plasma assessed as inhibition of fibrin clot formation at 2 X 10^-8 M by biotin incorporation assay in presence of 10 X 10^-3 mol/l reduced GSH; settings: values are per cent of control
[12] = target: T3, Coagulation factor XIII A chain (Homo sapiens); test: Inhibition of F13-A (unknown origin) at 10^-6 mol/l in presence of 5 X 10^-3 mol/l DTT
[13] = target: T1, Coagulation factor XIII A chain; test: Inhibition of F13-A in human plasma assessed as inhibition of fibrin clot formation by biotin incorporation assay in presence of 1 mM reduced GSH

Row | Compound | IC50 [1] [nM] | inhibition [2] | Selectivity ratio (Homo sapiens) | IC50 [3] [nM] | residual activity [4] [%] | residual activity [5] [%] | residual activity [6] [%] | residual activity [7] [%] | residual activity [8] [%] | residual activity [9] [%] | residual activity [10] [%] | residual activity [11] [%] | inhibition [12] | IC50 [13] [µM]
1 | NC(=O)[C@@H]1O[C@@H]1C(=O)Nc1ccc(Oc2ccc([N+](=O)[O-])cc2)cc1 (racemic) | 430 | inactive | 10000 | – | – | – | – | – | – | – | – | – | – | –
2 | NC(=O)[C@@H]1O[C@@H]1C(=O)Nc1ccc(Oc2ccc(NC(=O)c3ccc(F)cc3)cc2)cc1 (racemic) | 100 | inactive | 10000 | 150 | – | – | – | – | – | – | – | – | – | –
3 | CCCCc1ccc(NC(=O)[C@@H]2O[C@@H]2C(N)=O)cc1 (racemic) | 220 | inactive | 10000 | 150 | 27 | 76 | 99 | 93 | 34 | 79 | 104 | 102 | – | –
4 | NC(=O)[C@@H]1O[C@@H]1C(=O)Nc1ccccc1 (racemic) | 720 | inactive | 10000 | 1100 | – | – | – | – | – | – | – | – | – | –
5 | NC(=O)[C@@H]1O[C@@H]1C(=O)Nc1ccc(CCNS(=O)(=O)c2ccccc2[N+](=O)[O-])cc1 (racemic) | 90 | inactive | 10000 | 88 | – | – | – | – | – | – | – | – | – | –
6 | C/C=C/C/C=C/CCC(=O)[C@H]1O[C@H]1C(N)=O [CERULENIN] | 4000 | – | – | – | – | – | – | – | – | – | – | – | – | 18
7 | NC(=O)[C@@H]1O[C@@H]1C(=O)Nc1ccc(Br)cc1 (racemic) | 130 | inactive | 10000 | 57 | – | – | – | – | – | – | – | – | – | –
8 | Cc1ccc(NC(=O)[C@H]2O[C@H]2C(N)=O)cc1C (racemic) | 110 | inactive | 10000 | 130 | – | – | – | – | – | – | – | – | – | –

The next molecules have a lower IC50 [1] than those just listed; values first:

Row | IC50 [1] [nM] | inhibition [2] | Selectivity ratio (Homo sapiens) | IC50 [3] [nM] | residual activity [4] [%] | residual activity [5] [%] | residual activity [6] [%] | residual activity [7] [%] | residual activity [8] [%] | residual activity [9] [%] | residual activity [10] [%] | residual activity [11] [%] | inhibition [12] | Compound | IC50 [13] [µM]
9 | 86 | inactive | 10000 | 48 | – | – | – | – | – | – | – | – | – | NC(=O)[C@@H]1O[C@@H]1C(=O)Nc1ccc(Oc2ccc(N)cc2)cc1 (racemic) | –
10 | 55 | inactive | 10000 | 46 | 6.1 | 32 | 66 | 96 | 7.8 | 47 | 78 | 90 | Active | NC(=O)[C@H]1O[C@H]1C(=O)Nc1ccc(Oc2ccccc2)cc1 (racemic) | –
11 | 48 | inactive | 10000 | 48 | – | – | – | – | – | – | – | – | – | NC(=O)[C@H]1O[C@H]1C(=O)Nc1cccc(Cl)c1 (racemic) | –
12 | 4 | inactive | 10000 | 50 | – | – | – | – | – | – | – | – | – | NC(=O)[C@H]1O[C@H]1C(=O)Nc1cccc(Oc2ccccc2)c1 (racemic) | –
13 | 4 | inactive | 10000 | 9.6 | – | – | – | – | – | – | – | – | – | NC(=O)[C@@H]1O[C@@H]1C(=O)Nc1ccc(Br)c(Cl)c1 (racemic) | –

Reference: ChEMBL document CHEMBL3421597, “(±) cis-Bisamido epoxides: A novel series of potent FXIII-A inhibitors” (Eur J Med Chem, 2015)
